The test system of this series is CCRIS mutagenicity, Ames/micronucleus/aberration tests. As to the kind of experiment: CCRIS mutagenicity studies.
Where [1] appears, read: Test System: MOUSE LYMPHOMA, Strain/Indicator: L5178Y (TK+/TK-), Metabolic Activation: NONE, Method: SUSPENSION/PLATE.

Structures are written as SMILES. Calls of active or inactive are those of the source. The rule behind the calls is not given here.

`CN(C)c1ccccc1`: the mutagenic call (End Point: IN VITRO CHROMOSOMAL ABERRATIONS, Test System: CHO CELLS, Metabolic Activation: NONE) was “active; positive; at highest dose”; the mutagenic call (End Point: IN VITRO CHROMOSOMAL ABERRATIONS, Test System: CHO CELLS, Metabolic Activation: RAT, LIVER, S-9, AROCLOR 1254) was “active; positive”; the mutagenic call (End Point: In vitro chromosomal aberrations, Test System: Chinese hamster lung (CHL/IU) cells, Metabolic Activation: Rat, Liver, S9, Phenobarbital and 5,6-benzoflavone) is “active; positive (structural changes and ploidy)”; the mutagenic call (Test System: AMES SALMONELLA TYPHIMURIUM, Strain/Indicator: TA97, Metabolic Activation: HAMSTER, LIVER, S-9, AROCLOR 1254 (10 OR 30%), Method: PREINCUBATION) was “inactive; negative”; the mutagenic call (Test System: AMES SALMONELLA TYPHIMURIUM, Strain/Indicator: TA97, Metabolic Activation: NONE, Method: PREINCUBATION) is “inactive; negative”; the mutagenic call (Test System: AMES SALMONELLA TYPHIMURIUM, Strain/Indicator: TA97, Metabolic Activation: RAT, LIVER, S-9, AROCLOR 1254 (10 OR 30%), Method: PREINCUBATION) was “inactive; negative”. Besides, the mutagenic call is “inactive; negative” (Test System: AMES SALMONELLA TYPHIMURIUM, Strain/Indicator: TA98, Metabolic Activation: HAMSTER, LIVER, S-9, AROCLOR 1254 (10 OR 30%), Method: PREINCUBATION); “inactive; negative” (Test System: AMES SALMONELLA TYPHIMURIUM, Strain/Indicator: TA98, Metabolic Activation: HAMSTER, LIVER, S-9, AROCLOR 1254, Method: PREINCUBATION); “inactive; negative” (Test System: AMES SALMONELLA TYPHIMURIUM, Strain/Indicator: TA98, Metabolic Activation: HAMSTER, LIVER, S-9, PHENOBARBITAL AND BETA-NAPHTHOFLAVONE, Method: PREINCUBATION); “inactive; negative” (Test System: AMES SALMONELLA TYPHIMURIUM, Strain/Indicator: TA98, Metabolic Activation: RAT, LIVER, S-9, AROCLOR 1254 (10 OR 30%), Method: PREINCUBATION); “inactive; negative” (Test System: AMES SALMONELLA TYPHIMURIUM, Strain/Indicator: TA98, Metabolic Activation: RAT, LIVER, S-9, AROCLOR 1254, Method: PREINCUBATION); “inactive; negative” (Test System: AMES SALMONELLA TYPHIMURIUM, Strain/Indicator: TA100, Metabolic Activation: HAMSTER, LIVER, S-9, AROCLOR 1254 (10 OR 30%), Method: PREINCUBATION). In addition, the mutagenic call runs as follows: (Test System: AMES SALMONELLA TYPHIMURIUM, Strain/Indicator: TA100, Metabolic Activation: HAMSTER, LIVER, S-9, AROCLOR 1254, Method: PREINCUBATION) “inactive; negative”; (Test System: AMES SALMONELLA TYPHIMURIUM, Strain/Indicator: TA100, Metabolic Activation: HAMSTER, LIVER, S-9, PHENOBARBITAL AND BETA-NAPHTHOFLAVONE, Method: PREINCUBATION) “inactive; negative”; (Test System: AMES SALMONELLA TYPHIMURIUM, Strain/Indicator: TA100, Metabolic Activation: RAT, LIVER, S-9, AROCLOR 1254 (10 OR 30%), Method: PREINCUBATION) “inactive; negative”; (Test System: AMES SALMONELLA TYPHIMURIUM, Strain/Indicator: TA100, Metabolic Activation: RAT, LIVER, S-9, AROCLOR 1254, Method: PREINCUBATION) “inactive; negative”; (Test System: AMES SALMONELLA TYPHIMURIUM, Strain/Indicator: TA102, Metabolic Activation: HAMSTER, LIVER, S-9, PHENOBARBITAL AND BETA-NAPHTHOFLAVONE, Method: PREINCUBATION) “inactive; negative”; (Test System: AMES SALMONELLA TYPHIMURIUM, Strain/Indicator: TA102, Metabolic Activation: HAMSTER, LIVER, S-9, SODIUM PHENOBARBITAL AND 5,6-BENZOFLAVONE, Method: PREINCUBATION) “inactive; negative”. For the same compound, the mutagenic call runs as follows: (Test System: AMES SALMONELLA TYPHIMURIUM, Strain/Indicator: TA102, Metabolic Activation: NONE, Method: PREINCUBATION) “inactive; negative”; (Test System: AMES SALMONELLA TYPHIMURIUM, Strain/Indicator: TA104, Metabolic Activation: HAMSTER, LIVER, S-9, PHENOBARBITAL AND BETA-NAPHTHOFLAVONE, Method: PREINCUBATION) “inactive; negative”; (Test System: AMES SALMONELLA TYPHIMURIUM, Strain/Indicator: TA104, Metabolic Activation: HAMSTER, LIVER, S-9, SODIUM PHENOBARBITAL AND 5,6-BENZOFLAVONE, Method: PREINCUBATION) “inactive; negative”; (Test System: AMES SALMONELLA TYPHIMURIUM, Strain/Indicator: TA104, Metabolic Activation: NONE, Method: PREINCUBATION) “inactive; negative”; (Test System: AMES SALMONELLA TYPHIMURIUM, Strain/Indicator: TA1535, Metabolic Activation: HAMSTER, LIVER, S-9, AROCLOR 1254, Method: PREINCUBATION) “inactive; negative”; (Test System: AMES SALMONELLA TYPHIMURIUM, Strain/Indicator: TA1535, Metabolic Activation: HAMSTER, LIVER, S-9, PHENOBARBITAL AND BETA-NAPHTHOFLAVONE, Method: PREINCUBATION) “inactive; negative”. In addition, the mutagenic call is “inactive; negative” (Test System: AMES SALMONELLA TYPHIMURIUM, Strain/Indicator: TA1535, Metabolic Activation: NONE, Method: PREINCUBATION); “inactive; negative” (Test System: AMES SALMONELLA TYPHIMURIUM, Strain/Indicator: TA1535, Metabolic Activation: RAT, LIVER, S-9, AROCLOR 1254, Method: PREINCUBATION); “inactive; negative” (Test System: AMES SALMONELLA TYPHIMURIUM, Strain/Indicator: TA1537, Metabolic Activation: HAMSTER, LIVER, S-9, AROCLOR 1254, Method: PREINCUBATION); “inactive; negative” (Test System: AMES SALMONELLA TYPHIMURIUM, Strain/Indicator: TA1537, Metabolic Activation: HAMSTER, LIVER, S-9, PHENOBARBITAL AND BETA-NAPHTHOFLAVONE, Method: PREINCUBATION); “inactive; negative” (Test System: AMES SALMONELLA TYPHIMURIUM, Strain/Indicator: TA1537, Metabolic Activation: NONE, Method: PREINCUBATION); “inactive; negative” (Test System: AMES SALMONELLA TYPHIMURIUM, Strain/Indicator: TA1537, Metabolic Activation: RAT, LIVER, S-9, AROCLOR 1254, Method: PREINCUBATION). The mutagenic call is “inactive; negative” (Test System: E. COLI, Strain/Indicator: WP2UVRA/PKM101, Metabolic Activation: HAMSTER, LIVER, S-9, PHENOBARBITAL AND BETA-NAPHTHOFLAVONE, Method: PREINCUBATION); “inactive; negative” (Test System: E. COLI, Strain/Indicator: WP2UVRA/PKM101, Metabolic Activation: NONE, Method: PREINCUBATION); “inactive; negative” (Test System: E. COLI, Strain/Indicator: WP2UVRA, Metabolic Activation: HAMSTER, LIVER, S-9, PHENOBARBITAL AND BETA-NAPHTHOFLAVONE, Method: PREINCUBATION); “inactive; negative” (Test System: E. COLI, Strain/Indicator: WP2UVRA, Metabolic Activation: NONE, Method: PREINCUBATION); “active; positive” (Test System: MOUSE LYMPHOMA TYPHIMURIUM, Strain/Indicator: L5178Y (TK+/TK-), Metabolic Activation: RAT, LIVER, S-9, AROCLOR 1254, Method: SUSPENSION/PLATE); “active; positive” under setting [1]. Also, the mutagenic call (Test System: UDS RODENT HEPATOCYTES, Strain/Indicator: THY INCORP (NON-S-PHASE), Metabolic Activation: NONE, Method: AUTORADIOGRAPHY) is “inactive; negative”.
On to `C[C@]12C=CC(=O)C=C1CC[C@@H]1[C@@H]2[C@@H](O)C[C@@]2(C)[C@H]1CC[C@]2(O)C(=O)CO`, for which the mutagenic call (Test System: AMES SALMONELLA TYPHIMURIUM, Strain/Indicator: TA98, Metabolic Activation: NONE, Method: PREINCUBATION) was “inactive; negative”; the mutagenic call (Test System: AMES SALMONELLA TYPHIMURIUM, Strain/Indicator: TA98, Metabolic Activation: S-9, Method: PREINCUBATION) is “inactive; negative”; the mutagenic call (Test System: AMES SALMONELLA TYPHIMURIUM, Strain/Indicator: TA100, Metabolic Activation: NONE, Method: PREINCUBATION) is “inactive; negative”; the mutagenic call (Test System: AMES SALMONELLA TYPHIMURIUM, Strain/Indicator: TA100, Metabolic Activation: S-9, Method: PREINCUBATION) is “inactive; negative”; the mutagenic call under setting [1] was “inactive; negative”; the mutagenic call (Test System: MOUSE LYMPHOMA, Strain/Indicator: L5178Y (TK+/TK-), Metabolic Activation: RAT, LIVER, S-9, AROCLOR 1254, Method: SUSPENSION/PLATE) was “active; positive”.
As for `O=C1c2c(O)ccc(O)c2C(=O)c2c(NCCO)ccc(NCCO)c21`, the mutagenic call under setting [1] is “active; positive”.
As for `Clc1ccccc1-c1nc2ccccc2o1`, the mutagenic call by setting is: (Test System: AMES SALMONELLA TYPHIMURIUM, Strain/Indicator: TA98, Metabolic Activation: NONE, Method: STANDARD PLATE) “inactive; negative”; (Test System: AMES SALMONELLA TYPHIMURIUM, Strain/Indicator: TA98, Metabolic Activation: S-9, Method: STANDARD PLATE) “inactive; negative”.

For the origin of these results see PubChem BioAssay AID1259407 (Chemical Carcinogenesis Research Information System (CCRIS), 2018).
